*1 amine or outer side, *2 acyl side, *3 side chain or, on linkers, in order; H or OH if unused. Where a SMILES comes first, the peptide text is derived from it. Bridges are numbered along the chain shown (N, C = ends). [ ]: non-standard residue; d: D form. The star is where a group is joined. hPhe(3-Cl-4-CF3) = N[C@@H](CCc1ccc(C(F)(F)F)c(Cl)c1)C(=O)O; X31 = O=C([C@H](Cc1ccc(C(F)(F)F)cc1)N(CC1CC1)[*:1])[*:2]; NMeGly(cPent) = CN[C@H](C(=O)O)C1CCCC1; NMeD = CN[C@@H](CC(=O)O)C(=O)O; NMeL = CN[C@@H](CC(C)C)C(=O)O; Morpholide = C1CN(*)CCO1; NMeA = CN[C@@H](C)C(=O)O; Ac5c = NC1(C(=O)O)CCCC1; Aze = O=C(O)[C@@H]1CCN1; Sar = CNCC(=O)O
Experiments:
[1] = biological target: GDP-bound NRAS wild-type protein (Homo sapiens, UniProt P01111); assay: Binding to NRAS by surface plasmon resonance (SPR), Single Cycle Kinetics
[2] = biological target: GDP-bound HRAS wild-type protein (Homo sapiens, UniProt P01112); assay: Binding to HRAS by surface plasmon resonance (SPR), Single Cycle Kinetics
[3] = KD ratio NRAS/KRAS, class symbols
[4] = KD ratio HRAS/KRAS, class symbols
[5] = KD ratio, GDP-bound NRAS wild-type vs GDP-bound KRAS wild-type, SPR
[6] = KD ratio, GDP-bound HRAS wild-type vs GDP-bound KRAS wild-type, SPR

Chain of GDP-bound HRAS wild-type protein (P01112 whole entry): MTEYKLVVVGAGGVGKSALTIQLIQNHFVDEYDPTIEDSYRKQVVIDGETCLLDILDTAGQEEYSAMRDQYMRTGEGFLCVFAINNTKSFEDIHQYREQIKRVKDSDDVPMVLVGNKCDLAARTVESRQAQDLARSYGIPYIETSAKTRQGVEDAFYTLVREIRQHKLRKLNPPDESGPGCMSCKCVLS
Chain of GDP-bound NRAS wild-type protein (P01111 whole entry): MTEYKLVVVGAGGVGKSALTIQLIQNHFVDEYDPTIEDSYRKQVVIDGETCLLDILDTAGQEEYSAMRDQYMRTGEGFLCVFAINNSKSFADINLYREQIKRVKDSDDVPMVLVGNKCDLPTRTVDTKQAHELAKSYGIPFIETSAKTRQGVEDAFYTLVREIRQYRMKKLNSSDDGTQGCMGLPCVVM

CCCOC[C@H]1C(=O)N[C@@H]([C@@H](C)CC)C(=O)N(C)CC(=O)N(C)[C@H]2C/C=C\CCN(C2=O)[C@@H](Cc2ccc(C)cc2)C(=O)N(C)CC(=O)N[C@@H](CCc2ccc(Cl)c(Cl)c2)C(=O)N2C[C@H](OCC)C[C@H]2C(=O)NC2(CC(C)(C)C2)C(=O)N(C)[C@@H](CC(C)(C)C)C(=O)N(C)[C@H](C(=O)N(C)C)CC(=O)N1C [PP2716]
NRAS/KRAS (ratio of KD value with respect to GDP-bound NRAS wild-type protein to KD value with respect to KRAS) [1, 3]: A (a compound having 10 or more and less than 20 is denoted as A) | HRAS/KRAS (ratio of KD value with respect to GDP-bound HRAS wild-type protein to KD value with respect to KRAS) [2, 4]: A (a compound having 10 or more and less than 20 is denoted as A)

CCC(CC)[C@H]1C(=O)N(C)[C@H](C(=O)N(C)C)CC(=O)N(C)[C@@H](COC)C(=O)N[C@@H]([C@@H](C)CC)C(=O)N(C2CC2)CC(=O)N(C)[C@H]2C/C=C\CCN(C2=O)[C@@H](CC2CCC(F)(F)CC2)C(=O)N(C)CC(=O)N[C@@H](CCc2cc(F)c(C(F)(F)F)c(F)c2)C(=O)N2C[C@H](OC(C)C)C[C@H]2C(=O)NC2(CC(C)(C)C2)C(=O)N1C [PP2523]
NRAS/KRAS (ratio of KD value with respect to GDP-bound NRAS wild-type protein to KD value with respect to KRAS) [1, 3]: A (a compound having 10 or more and less than 20 is denoted as A) | HRAS/KRAS (ratio of KD value with respect to GDP-bound HRAS wild-type protein to KD value with respect to KRAS) [2, 4]: A (a compound having 10 or more and less than 20 is denoted as A)

CCCOC[C@H]1C(=O)N[C@@H]([C@@H](C)CC)C(=O)N(C)CC(=O)N(C)[C@H]2C/C=C\CCN(C2=O)[C@@H](Cc2ccc(C(F)(F)F)cc2)C(=O)N(C)CC(=O)N[C@@H](CCc2ccc(C(F)(F)F)c(OC)c2)C(=O)N2C[C@@H](C)C[C@H]2C(=O)NC2(CCC2)C(=O)N(C)[C@@H](C2CCCC2)C(=O)N(C)[C@H](C(=O)N(C)CC)CC(=O)N1C [PP2027]
NRAS/KRAS (ratio of KD value for NRAS to KD value for KRAS) [1, 5]: A (a compound having 10 or more and less than 20 is denoted as A) | HRAS/KRAS (ratio of KD value for HRAS to KD value for KRAS) [2, 6]: B (a compound having 3 or more and less than 10 is denoted as B)

CCO[C@@H]1C[C@H]2C(=O)NC3(CC(C)(C)C3)C(=O)N(C)[C@@H](C(CC)CC)C(=O)N(C)[C@H](C(=O)N(C)C)CC(=O)N(C)[C@@H](C(C)C)C(=O)N[C@@H]([C@@H](C)CC)C(=O)N(C)CC(=O)N(C)[C@H]3C/C=C\CCN(C3=O)[C@@H](Cc3ccc(C)cc3)C(=O)N(C)CC(=O)N[C@@H](CCc3ccc(Cl)c(Cl)c3)C(=O)N2C1 [PP2122]
NRAS/KRAS (ratio of KD value with respect to NRAS to KD value with respect to KRAS) ([1]; SPR, GDP-bound NRAS wild-type vs GDP-bound KRAS wild-type): AA (a compound having 20 or more is denoted as AA) | HRAS/KRAS (ratio of KD value with respect to HRAS to KD value with respect to KRAS) ([2]; SPR, GDP-bound HRAS wild-type vs GDP-bound KRAS wild-type): A (a compound having 10 or more and less than 20 is denoted as A)

CCO[C@@H]1C[C@H]2C(=O)NC3(CCC3)C(=O)N(C)[C@@H](C3CCCC3)C(=O)N(C)[C@H](C(=O)N(C)C)CC(=O)N(C)[C@@H](CC(C)C)C(=O)N[C@@H]([C@@H](C)CC)C(=O)N3CC[C@H]3C(=O)N(C)[C@H]3CC(C)=CCN(C3=O)[C@@H](Cc3ccc(C(F)(F)F)cc3)C(=O)N(C)CC(=O)N[C@@H](CCc3cc(F)c(C(F)(F)F)c(F)c3)C(=O)N2C1 [PP1033]
NRAS/KRAS (ratio of KD value with respect to NRAS to KD value with respect to KRAS) [1, 5]: C (A compound having a KD ratio of 0.1 or more and less than 3 is denoted as C) | HRAS/KRAS (ratio of KD value with respect to HRAS to KD value with respect to KRAS) [2, 6]: C (A compound having a KD ratio of 0.1 or more and less than 3 is denoted as C)

CCO[C@@H]1C[C@H]2C(=O)NC3(CCC3)C(=O)N(C)[C@@H](C3CCCC3)C(=O)N(C)[C@H](C(=O)N3CCOCC3)CC(=O)N(C)[C@@H](Cc3ccccc3)C(=O)N[C@@H]([C@@H](C)CC)C(=O)N(C)CC(=O)N(C)[C@H]3CCCCCN(C3=O)[C@@H](Cc3ccc(C(F)(F)F)cc3)C(=O)N(C)CC(=O)N[C@@H](CCc3cc(F)c(C(F)(F)F)c(F)c3)C(=O)N2C1 [PP0687]
NRAS/KRAS (ratio of KD value with respect to GDP-bound NRAS wild-type protein to KD value with respect to KRAS) ([1]; KD ratio NRAS/KRAS, SPR): B (a compound having 3 or more and less than 10 is denoted as B) | HRAS/KRAS (ratio of KD value with respect to GDP-bound HRAS wild-type protein to KD value with respect to KRAS) ([2]; KD ratio HRAS/KRAS, SPR): B (a compound having 3 or more and less than 10 is denoted as B)

CC[C@H](C)[C@@H]1NC(=O)[C@H](CC(C)C)N(C)C(=O)C[C@@H](C(=O)N2CCOCC2)N(C)C(=O)[C@H](C2CCCC2)N(C)C(=O)C2(CCCC2)NC(=O)[C@@H]2CCCN2C(=O)[C@H](CCc2ccc(C(F)(F)F)c(Cl)c2)NC(=O)CN(C)C(=O)[C@H](Cc2ccc(C(F)(F)F)cc2)N(CC2CC2)C(=O)[C@@H]2CCN2C(=O)[C@H](C)N(C)C1=O [PP0108] ([NMeL]I[NMeA][Aze][X31][Sar][hPhe(3-Cl-4-CF3)]P[Ac5c][NMeGly(cPent)][NMeD]-Morpholide; lactam N-11)
NRAS/KRAS (ratio of KD for GDP-bound NRAS wild-type to KD for KRAS) ([1]; KD ratio NRAS/KRAS, SPR): C (A compound having a KD ratio of 0.1 or more and less than 3 is denoted as C) | HRAS/KRAS (ratio of KD for GDP-bound HRAS wild-type to KD for KRAS) ([2]; KD ratio HRAS/KRAS, SPR): C (A compound having a KD ratio of 0.1 or more and less than 3 is denoted as C)

Reference: US20250230193A1, “CYCLIC COMPOUND HAVING SELECTIVE KRAS INHIBITORY EFFECT ON HRAS AND NRAS” (CHUGAI SEIYAKU KABUSHIKI KAISHA, priority 2022, published 2025)
